According to article PMC4992173, “Divergent synthesis and identification of the cellular targets of deoxyelephantopins” (Nature Communications, 2016):

What was measured:
PPARγ = target: T1, PPARγ (Homo sapiens, UniProt P37231); assay: Gel-based screening for PPARγ binders using probe 24c-Cy3; assay type: binding; parameters: purchased Cayman Chemical; conditions: 20 μM, 1 h, then 10 μM 24c-Cy3; 19a named first, 28 second
T1 sequence (P37231 1-505): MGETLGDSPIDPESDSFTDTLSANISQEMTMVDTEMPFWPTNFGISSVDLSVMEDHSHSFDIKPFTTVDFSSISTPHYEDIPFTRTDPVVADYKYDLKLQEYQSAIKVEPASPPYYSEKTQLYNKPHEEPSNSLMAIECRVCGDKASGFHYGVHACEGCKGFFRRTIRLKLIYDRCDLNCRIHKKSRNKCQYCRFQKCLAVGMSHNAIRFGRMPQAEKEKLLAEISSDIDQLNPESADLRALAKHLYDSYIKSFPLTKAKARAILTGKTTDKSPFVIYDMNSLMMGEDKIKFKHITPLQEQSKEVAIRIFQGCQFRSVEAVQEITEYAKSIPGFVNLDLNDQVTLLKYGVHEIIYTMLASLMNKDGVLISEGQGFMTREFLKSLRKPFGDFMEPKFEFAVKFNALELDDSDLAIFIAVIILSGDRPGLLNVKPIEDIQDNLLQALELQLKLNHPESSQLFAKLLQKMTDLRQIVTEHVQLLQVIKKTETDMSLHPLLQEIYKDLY
Protocol: (c) Gel-based competitive screening of DEP and analogues as PPARγ antagonists against recombinant human enzyme (top). hPPARγ was treated with each compound (20 μM) for 1 h followed by treatment with 24c-Cy3 (10 μM) as probe. Quantification of fluorescence intensity in the competitive screening for PPARγ antagonists (bottom; values±s.d. are shown; n=3).
Briefly, recombinant human PPARγ was pretreated with compounds at 20 μM concentration followed by the probe 24c-Cy3.
Samples were then treated with 10 μM 24c-Cy3 (0.5 μl of 25 × stock in DMSO) for 1 h at room temperature in the dark. SDS–PAGE reducing loading buffer (4 ×) was added and proteins were separated using a 10% SDS–PAGE gel. Gels were visualized at 625 nm using a Hitachi FMBIO II Multi-View fluorescence scanner, then stained using silver staining. Images were quantified with ImageJ.

[1] = system: proteins enriched from MCF7 cells by probe 24c; assay: SILAC competitive profiling with probe 24c in MCF7 lysates, proteome-wide; assay type: binding, human; conditions: 20 μM deoxyelephantopin, 10 μM 24c, SILAC ratio<0.30
Excerpt: In our efforts to determine the direct molecular targets of deoxyelephantopin we first performed a gel-based competitive in situ proteomic profiling assay[41] […] While the greater conformational flexibility of probe 24c could potentially lead to more promiscuous target engagement relatively to deoxyelephantopin, it was favoured based on the fact that an alkyne moiety appended to the rigid scaffold of deoxyelephantopin may hinder some of its interactions. MCF7 cells were pretreated with various concentrations of deoxyelephantopin for 4 h, harvested, lysed and the lysates were treated with the fluorogenic probe 24c-Cy3 (10 μM; Supplementary Fig. 10). […] Furthermore, cells were pretreated with 20 μM concentration of deoxyelephantopin or 24c and the proteomic profiles were compared (Fig. 6b, Supplementary Fig. 11). Multiple bands were detected that were equally competed by both DEP and 24c, thus again confirming that 24c can be used as an acceptable clickable analogue of deoxyelephantopin in pulldown assays. Having established the optimal labelling conditions by SDS–PAGE, we next carried out a mass spectrometry-based competitive profiling assay[42] coupled with the method of stable isotope labelling of amino acids in culture (SILAC)[43]. […]
visualization were performed as described above. Images were quantified with ImageJ and kinetics values were calculated using GraphPad Prism (V6.03). […]

Row | Structure (SMILES) | rank as covalent binder to PPARγ (competition of 24c-Cy3 labelling) (PPARγ) | competition of probe 24c labelling (11 proteins) [1]
1 | C=C(C)C(=O)O[C@H]1CC2=C[C@H](C/C=C\[C@H]3OC(=O)C(=C)[C@H]13)OC2=O [19a] | most effective covalent binder | –
2 | C=C(C)C(=O)O[C@H]1CC2=C[C@@H](C/C(C)=C/[C@H]3OC(=O)C(=C)[C@H]13)OC2=O [deoxyelephantopin] | – | > 70%
